Measurements as given in patent publication US20260055117A1, “SUBSTITUTED PYRIDONE GPR84 ANTAGONISTS AND USES THEREOF” (Liminal BioSciences Limited, priority 2022, published 2026).

Biological target: T1, human GPR84 receptor (Homo sapiens, UniProt Q9NQS5)
T1 construct: host or cells: HEK293, transiently transfected
Experiment: Gαi biosensor BRET assay (GPR84 antagonism vs agonist ZQ-16)
Assay type: cell-based
Conditions: HEK293 cells, 200 nmol/L agonist ZQ-16; for IC50: Gαi biosensor BRET assay; for inhibition at 2 µM: tested at 2 μM (concentration code A); for inhibition at 10 µM: tested at 10 μM (concentration code D)
Text: Background—The following assays can be used for determination of GPR84 activation in living HEK293 cells. The Gai BRET biosensor (Gagnon et al., 2018; Gales et al., 2006. Nat Struct Mol Biol. 13, 778-86; Saulieres et al., 2012. Nat Chem Biol. 8, 622-30) allows to directly monitor GPR84-mediated activation of Gai. The Gai biosensor consists of a Rluc8-tagged Gai2 subunit, a GFP10-tagged Gy2 subunit, and an untagged GB1. Agonist stimulation and GPR84 activation triggers a physical separation between the RLuc8-Gai donor and the GFP10-Gy2 acceptor, resulting in a decrease in BRET signal whose amplitude is correlated to ligand efficacy (Gales et al., 2006). Moreover, signaling functions of GPCRs are tightly regulated by endocytosis, the targeting of receptors to endosomes and their sorting to lysosomes or recycling to the plasma membrane. The early endosomes (EEs) trafficking assay (Namkung et al., 2016. Nat Commun. 7, 12178) uses Rluc8-tagged GPR84 and Renilla GFP (rGFP) attached to the FYVE domain from human endofin/zinc finger FYVE domain-containing protein 16, which binds phosphatidylinositol 3-phosphate in EEs. Agonist stimulation of GPR84-Rluc8 leads to trafficking of the receptor to EEs, and ensuing increase of the donor concentration relative to the rGFP-FYVE acceptor anchored in the same cellular compartment, and thus results in an increase in BRET signal.
Plasmids—The cDNA clones for human GPR84 receptor, human Gai2, GB1, and Gy2 were obtained from the cDNA Resource Center (www.cdna.org). GFP10 (F64L, S147P, S202F and H231L variant of Aequorea victoria Green Fluorescent Protein) gBlocks gene fragments (Integrated DNA Technologies, IA) and linker were inserted in frame at the N-terminus of human Gy2. Rluc8 (A55T, C124A, S130A, K136R, A143M, M185V, M253L, and S287L variant of the Renilla reniformis luciferase) gBlocks gene fragment was inserted with linkers in frame in between residues 91 and 92 of Gai2 or at the C-terminus of GPR84. The FYVE domain from human endofin (residues Q739 to K806) attached in frame at the C terminus of a humanized Renilla GFP (rGFP), were synthesized as gBlocks gene fragments.
Bioluminescence Resonance Energy Transfer (BRET) Measurement-HEK293 cells were transfected with GPR84-Rluc8 and rGFP-FYVE for the EEs trafficking biosensor or with GPR84, Gai2-Rluc8, GFP10-Gy2, and GB1 for the Ga; biosensor. The following day, transiently transfected cells were seeded in 96-well white clear bottom microplates coated with poly-D-lysine and left in culture for 24 hours. Cells were washed once with Tyrode's buffer (140 mmol/L NaCl, 1 mmol/L CaCl2), 2.7 mmol/L KCl, 0.49 mmol/L MgCl2, 0.37 mmol/L NaH2PO4, 5.6 mmol/L glucose, 12 mmol/L NaHCO3, and 25 mmol/L HEPES, pH 7.5) before performing assays in Tyrode's buffer. Test compounds were incubated with cells for 5 (Gai) or 15 (EEs) minutes at 37° C. before addition of 200 nmol/L of the GPR84 agonist ZQ-16 (2-(Hexylthio)-6-hydroxy-4 (3H)-pyrimidinone) for 5 minutes at room temperature (Gai) or 30 minutes at 37° C. (EEs). The Rluc8 substrate coelenterazine 400A (Prolume, Lakeside, A Z) was added at a final concentration of 5 μmol/L and BRET readings were collected using an Infinite M1000 microplate reader (Tecan, Morrisville, N C). BRET2 readings between Rluc8 and GFP10 or rGFP were collected by sequential integration of the signals detected in the 370 to 450 nm (Rluc8) and 510 to 540 nm (GFP10, rGFP) windows. The BRET signal was calculated as the ratio of light emitted by acceptor (GFP10, rGFP) over the light emitted by donor (Rluc8). The values were corrected to net BRET by subtracting the background BRET signal obtained in cells transfected with Rluc8 constructs alone. Ligand-promoted net BRET values were calculated by subtracting vehicle-induced net BRET from ligand-induced net BRET.

T1 sequence (Q9NQS5 whole entry): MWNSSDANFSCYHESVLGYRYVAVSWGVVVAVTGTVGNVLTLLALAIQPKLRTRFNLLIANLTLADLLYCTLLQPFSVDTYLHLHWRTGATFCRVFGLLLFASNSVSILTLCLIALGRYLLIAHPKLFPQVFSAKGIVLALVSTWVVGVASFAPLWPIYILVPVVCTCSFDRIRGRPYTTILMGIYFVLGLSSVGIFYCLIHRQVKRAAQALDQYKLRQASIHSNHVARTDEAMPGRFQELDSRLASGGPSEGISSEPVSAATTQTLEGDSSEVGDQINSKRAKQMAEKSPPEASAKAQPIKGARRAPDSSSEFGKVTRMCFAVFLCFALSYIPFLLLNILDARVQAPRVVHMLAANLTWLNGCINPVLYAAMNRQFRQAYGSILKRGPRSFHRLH

| Compound | IC50 [nM] | inhibition at 2 µM [%] | inhibition at 10 µM [%] |
| --- | --- | --- | --- |
| Cc1cc(OCC(=O)N2CCC2)cc(=O)n1[C@H](C)c1ccc(C#CC2CC2)cc1 [Compound I-1, (R)-4-(2-(azetidin-1-yl)-2-oxoethoxy)-1-(1-(4-(cyclopropylethynyl)phenyl)ethyl)-6-methylpyridin-2 (1H)-one] | ≤ 300 | > 75 |  |
| Cc1cc(OCC(=O)N2CCCC2)cc(=O)n1[C@H](C)c1ccc(C#CC2CC2)cc1 [Compound I-2] | ≤ 300 | > 75 |  |
| Cc1cc(OCC(=O)N2CCOCC2)cc(=O)n1[C@H](C)c1ccc(C#CC2CC2)cc1 [Compound I-3] | ≤ 300 | > 75 |  |
| COc1cncnc1COc1cc(C)n([C@H](C)c2ccc(C#CC3CC3)cc2)c(=O)c1 [Compound I-4] |  |  | > 75 |
| CCCCc1ccc(C(C)n2c(C)cc(OCc3ncccn3)cc2=O)cc1 (centres unmarked) [Compound I-5, 1-(1-(4-butylphenyl)ethyl)-6-methyl-4-(pyrimidin-2-ylmethoxy)pyridin-2 (1H)-one] |  |  | < 25 |
| [2H]C([2H])([2H])N(C(=O)COc1cc(C)n([C@H](C)c2ccc(C#CC3CC3)cc2)c(=O)c1)C([2H])([2H])[2H] [Compound I-6] | ≤ 300 | > 75 |  |
| Cc1cc(OCC(=O)N2CC(F)(F)C2)cc(=O)n1[C@H](C)c1ccc(C#CC2CC2)cc1 [Compound I-7] | 300 to 1000 |  | > 75 |
| Cc1cc(OCC(=O)N2CCC(F)(F)CC2)cc(=O)n1[C@H](C)c1ccc(C#CC2CC2)cc1 [Compound I-8] |  |  | > 75 |
| Cc1cc(OCC2COCCO2)cc(=O)n1[C@H](C)c1ccc(NC(=O)c2cnccn2)c(F)c1 (stereo partly drawn) [Compound I-9, N-(4-((1R)-1-(4-((1,4-dioxan-2-yl)methoxy)-6-methyl-2-oxopyridin-1 (2H)-yl)ethyl)-2-fluorophenyl) pyrazine-2-carboxamide] |  |  | < 25 |
| Cc1cc(OCc2ncccn2)cc(=O)n1[C@H](C)c1ccc(-c2cnc(C3CC3)cn2)c(F)c1 [Compound I-10] |  |  | < 25 |
| Cc1cc(OCc2ncc(NS(C)(=O)=O)cn2)cc(=O)n1[C@H](C)c1ccc(C#CC2CC2)cc1 [Compound I-11] | ≤ 300 | > 75 |  |
| Cc1noc(COc2cc(C)n([C@H](C)c3ccc(C#CC4CC4)cc3)c(=O)c2)n1 [Compound I-12] |  |  | > 75 |
| Cc1cc(OCc2cnc(C3CC3)cn2)cc(=O)n1C(C)c1ccc(OCC2CCCCO2)c(F)c1 (centres unmarked) [Compound I-13] |  |  | < 25 |
| Cc1cc(OCC(=O)N(C)C)cc(=O)n1[C@H](C)c1ccc(C#CC2CC2)c(F)c1 [Compound I-14] | ≤ 300 | > 75 |  |
| Cc1cc(OCc2ncncc2Cl)cc(=O)n1[C@H](C)c1ccc(C#CC2CC2)cc1 [Compound I-15] | ≤ 300 |  | > 75 |
| Cc1cc(OCC2COCCO2)cc(=O)n1C(C)c1ccc(OCC2CCN(C(=O)C3CC3)CC2)c(F)c1 (centres unmarked) [Compound I-16] |  |  | < 25 |
| Cc1nnc(COc2cc(C)n([C@H](C)c3ccc(C#CC4CC4)c(F)c3)c(=O)c2)o1 [Compound I-17] | ≤ 300 | > 75 |  |
| Cc1noc(COc2cc(C)n([C@H](C)c3ccc(C#CC4CC4)c(F)c3)c(=O)c2)n1 [Compound I-18] |  |  | > 75 |
| Cc1cc(OCC2(N(C)C)COC2)cc(=O)n1[C@H](C)c1ccc(C#CC2CC2)c(F)c1 [Compound I-19] |  |  | 50 to 75 |
| CCCC#Cc1ccc([C@@H](C)n2c(C)cc(OCC(=O)N(C)C)cc2=O)cc1 [Compound I-20] | ≤ 300 |  | > 75 |
| Cc1cc(OCC(=O)O)cc(=O)n1[C@H](C)c1ccc(C#CC2CC2)cc1 [Compound I-21] |  |  | 50 to 75 |
| COC(=O)COc1cc(C)n([C@H](C)c2ccc(C#CC3CC3)cc2)c(=O)c1 [Compound I-22] |  |  | > 75 |
| Cc1cc(OCC(=O)N2CCC2)cc(=O)n1[C@H](C)c1ccc(C#CC2CC2)c(F)c1 [Compound I-23] | ≤ 300 | > 75 |  |
| Cc1cc(OCC(=O)N2CC(F)(F)C2)cc(=O)n1[C@H](C)c1ccc(C#CC2CC2)c(F)c1 [Compound I-24] | 300 to 1000 |  | > 75 |
| Cc1cc(OCC(=O)N2CCCC2)cc(=O)n1[C@H](C)c1ccc(C#CC2CC2)c(F)c1 [Compound I-25] | ≤ 300 | > 75 |  |
| Cc1cc(OCC(=O)N2CCC(F)(F)CC2)cc(=O)n1[C@H](C)c1ccc(C#CC2CC2)c(F)c1 [Compound I-26] |  |  | > 75 |
| Cc1cc(OCC(=O)N2CCOCC2)cc(=O)n1[C@H](C)c1ccc(C#CC2CC2)c(F)c1 [Compound I-27] |  |  | > 75 |
| CCC#Cc1ccc([C@@H](C)n2c(C)cc(OCC(=O)N(C)C)cc2=O)cc1 [Compound I-28] | ≤ 300 |  | > 75 |

Other lines, results leading:

| IC50 [nM] | inhibition at 2 µM [%] | inhibition at 10 µM [%] | Compound |
| --- | --- | --- | --- |
| ≤ 300 | > 75 |  | Cc1cc(OCC(=O)N(C)C)cc(=O)n1[C@H](C)c1ccc(C#CC2CC2(F)F)c(F)c1 (single isomer, unassigned) [Compound I-83] |
| ≤ 300 |  |  | Cc1cc(OCC(=O)N(C)C)cc(=O)n1[C@H](C)c1ccc(C#CC2CC2(F)F)c(F)c1 (single isomer, unassigned) [Compound I-84] |
| ≤ 300 | > 75 |  | Cc1cc(OCC(=O)N(C)C)cc(=O)n1[C@H](C)c1ccc(C#CC2CC2)c(Cl)c1 [Compound I-29] |
|  |  | 50 to 75 | Cc1cc(OCC2(N(C)C)CC2)cc(=O)n1[C@H](C)c1ccc(C#CC2CC2)cc1 [Compound I-30] |
|  |  | 25 to 50 | Cc1cc(OCC2(N(C)C)CC2)cc(=O)n1[C@H](C)c1ccc(C#CC2CC2)c(F)c1 [Compound I-31] |
| ≤ 300 | > 75 |  | Cc1cc(OCC(=O)N(C)C)cc(=O)n1[C@H](C)c1ccc(C#CCC2CC2)cc1 [Compound I-32] |
|  |  | > 75 | Cc1cc(OCC(=O)N(C)C)cc(=O)n1[C@H](C)c1ccc(C#CC2CC2)c(C2CC2)c1 [Compound I-33] |
| ≤ 300 | > 75 |  | Cc1cc(OCC(=O)N(C)C)cc(=O)n1[C@H](C)c1ccc(C#CC2CC2)c(C#N)c1 [Compound I-34] |
| ≤ 300 | > 75 |  | Cc1cc(OCC(=O)N(C)C)cc(=O)n1[C@H](C)c1ccc(C#CC2CC2)c(Br)c1 [Compound I-35] |
|  |  | > 75 | Cc1cc(OCC2(N(C)C)COC2)cc(=O)n1[C@H](C)c1ccc(C#CC2CC2)cc1 [Compound I-36] |
|  |  | 50 to 75 | Cc1cc(OCS(=O)(=O)N(C)C)cc(=O)n1[C@H](C)c1ccc(C#CC2CC2)c(F)c1 [Compound I-37, (R)-1-(1-(1-(4-(cyclopropylethynyl)-3-fluorophenyl)ethyl)-6-methyl-2-oxo-1,2-dihydropyridin-4-yloxy)-N,N-dimethylmethanesulfonamide] |
|  |  | > 75 | Cc1cc(OCC(=O)N(C)C)cc(=O)n1[C@H](C)c1ccc(C#CC2CC2)c(N(C)C)c1 [Compound I-38] |
| ≤ 300 | > 75 |  | CCc1cc([C@@H](C)n2c(C)cc(OCC(=O)N(C)C)cc2=O)ccc1C#CC1CC1 [Compound I-39] |
|  |  | 25 to 50 | Cc1cc(OCC2OCCC(C)(C)O2)cc(=O)n1[C@H](C)c1ccc(C#CC2CC2)cc1 (some centres unmarked) [Compound I-40] |
